What all share (test): Kinase profile (33P ATP filter binding)
Format in all cases: biochemical
Holding throughout (conditions): read-out: Remaining protein kinase activity

Experiment [1] addresses T1, BRSK2 (Homo sapiens, UniProt Q8IWQ3).
T1 sequence (Q8IWQ3 1-736): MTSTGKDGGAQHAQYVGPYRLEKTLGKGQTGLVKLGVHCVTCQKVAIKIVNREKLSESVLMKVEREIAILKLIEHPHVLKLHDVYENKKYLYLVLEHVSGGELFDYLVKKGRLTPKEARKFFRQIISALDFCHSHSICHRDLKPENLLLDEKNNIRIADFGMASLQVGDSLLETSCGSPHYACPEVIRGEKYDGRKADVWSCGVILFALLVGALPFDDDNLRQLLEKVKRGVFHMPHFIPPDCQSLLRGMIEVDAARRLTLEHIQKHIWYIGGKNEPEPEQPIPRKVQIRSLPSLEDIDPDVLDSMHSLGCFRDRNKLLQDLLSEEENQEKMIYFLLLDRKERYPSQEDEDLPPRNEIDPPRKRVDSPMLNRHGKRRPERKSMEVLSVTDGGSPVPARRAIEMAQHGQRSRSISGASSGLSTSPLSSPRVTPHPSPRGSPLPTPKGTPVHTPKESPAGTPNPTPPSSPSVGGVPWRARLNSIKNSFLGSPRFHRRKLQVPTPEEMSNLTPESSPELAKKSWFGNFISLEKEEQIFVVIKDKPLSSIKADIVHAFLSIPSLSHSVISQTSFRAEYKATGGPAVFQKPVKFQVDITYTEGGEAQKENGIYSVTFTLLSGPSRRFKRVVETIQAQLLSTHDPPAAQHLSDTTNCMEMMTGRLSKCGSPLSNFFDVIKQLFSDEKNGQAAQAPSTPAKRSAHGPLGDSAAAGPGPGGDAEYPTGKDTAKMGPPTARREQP

The target of experiment [2] is T2, ERK8 (Homo sapiens, UniProt Q8TD08).
T2 sequence (Q8TD08 1-544): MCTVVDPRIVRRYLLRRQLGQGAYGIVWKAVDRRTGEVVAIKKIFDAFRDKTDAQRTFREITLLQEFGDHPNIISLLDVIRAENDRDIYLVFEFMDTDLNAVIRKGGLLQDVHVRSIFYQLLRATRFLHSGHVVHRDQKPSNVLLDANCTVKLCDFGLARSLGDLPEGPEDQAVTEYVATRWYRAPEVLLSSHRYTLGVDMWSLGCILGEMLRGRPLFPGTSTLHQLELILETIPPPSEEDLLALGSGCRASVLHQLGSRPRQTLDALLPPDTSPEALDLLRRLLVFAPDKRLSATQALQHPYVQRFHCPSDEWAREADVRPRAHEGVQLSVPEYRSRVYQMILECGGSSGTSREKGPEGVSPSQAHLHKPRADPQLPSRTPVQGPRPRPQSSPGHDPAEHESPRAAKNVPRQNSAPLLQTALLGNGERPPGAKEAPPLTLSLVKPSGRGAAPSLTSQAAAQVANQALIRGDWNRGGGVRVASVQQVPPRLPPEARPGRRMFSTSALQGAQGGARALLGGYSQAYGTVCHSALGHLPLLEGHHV

The target of experiment [3] is MELK (Homo sapiens, UniProt Q14680).
Sequence of MELK (Q14680 whole entry): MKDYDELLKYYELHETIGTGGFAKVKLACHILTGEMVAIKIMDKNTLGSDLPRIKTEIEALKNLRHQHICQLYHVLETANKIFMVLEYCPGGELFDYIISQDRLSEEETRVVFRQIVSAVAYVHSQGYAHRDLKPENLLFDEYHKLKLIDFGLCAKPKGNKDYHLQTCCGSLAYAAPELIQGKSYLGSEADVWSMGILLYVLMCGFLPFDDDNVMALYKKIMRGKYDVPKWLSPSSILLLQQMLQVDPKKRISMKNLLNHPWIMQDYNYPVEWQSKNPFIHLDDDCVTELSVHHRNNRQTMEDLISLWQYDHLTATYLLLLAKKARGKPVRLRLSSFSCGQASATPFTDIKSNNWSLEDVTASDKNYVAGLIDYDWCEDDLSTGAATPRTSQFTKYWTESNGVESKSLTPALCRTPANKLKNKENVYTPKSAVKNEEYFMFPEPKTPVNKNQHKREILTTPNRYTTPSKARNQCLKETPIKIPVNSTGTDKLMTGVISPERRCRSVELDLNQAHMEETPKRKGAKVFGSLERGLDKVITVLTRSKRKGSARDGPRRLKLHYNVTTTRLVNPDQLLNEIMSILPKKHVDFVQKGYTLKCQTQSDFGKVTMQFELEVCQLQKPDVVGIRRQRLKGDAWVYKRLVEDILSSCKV
For experiment [4], the target named is T3, MKK6 (Homo sapiens, UniProt P52564).
T3 sequence (P52564 1-334): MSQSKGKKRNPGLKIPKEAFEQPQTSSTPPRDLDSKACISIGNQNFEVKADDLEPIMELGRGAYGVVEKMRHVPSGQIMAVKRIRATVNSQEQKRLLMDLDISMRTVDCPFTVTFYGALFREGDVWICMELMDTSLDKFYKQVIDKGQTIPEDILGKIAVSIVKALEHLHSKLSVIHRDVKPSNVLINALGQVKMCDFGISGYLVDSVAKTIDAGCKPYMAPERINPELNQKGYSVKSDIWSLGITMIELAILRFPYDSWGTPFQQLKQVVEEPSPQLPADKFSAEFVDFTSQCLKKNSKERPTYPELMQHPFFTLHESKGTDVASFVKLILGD

Experiment [5] has as its target T4, NEK2a (Homo sapiens, UniProt P51955).
T4 sequence (P51955 1-445): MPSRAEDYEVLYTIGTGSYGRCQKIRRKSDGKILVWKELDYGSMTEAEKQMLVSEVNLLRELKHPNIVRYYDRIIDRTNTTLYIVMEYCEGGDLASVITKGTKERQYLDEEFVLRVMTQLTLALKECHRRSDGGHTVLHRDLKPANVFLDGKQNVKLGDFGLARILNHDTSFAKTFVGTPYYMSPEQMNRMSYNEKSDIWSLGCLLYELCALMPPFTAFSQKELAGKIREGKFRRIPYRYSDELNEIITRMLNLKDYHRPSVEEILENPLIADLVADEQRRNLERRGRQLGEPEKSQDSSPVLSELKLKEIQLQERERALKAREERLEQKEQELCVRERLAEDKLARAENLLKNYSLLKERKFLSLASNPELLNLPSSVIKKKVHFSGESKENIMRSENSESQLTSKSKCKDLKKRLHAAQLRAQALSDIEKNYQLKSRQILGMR

For experiment [6], the target named is NEK6 (Homo sapiens, UniProt Q9HC98).
Sequence of NEK6 (Q9HC98 whole entry): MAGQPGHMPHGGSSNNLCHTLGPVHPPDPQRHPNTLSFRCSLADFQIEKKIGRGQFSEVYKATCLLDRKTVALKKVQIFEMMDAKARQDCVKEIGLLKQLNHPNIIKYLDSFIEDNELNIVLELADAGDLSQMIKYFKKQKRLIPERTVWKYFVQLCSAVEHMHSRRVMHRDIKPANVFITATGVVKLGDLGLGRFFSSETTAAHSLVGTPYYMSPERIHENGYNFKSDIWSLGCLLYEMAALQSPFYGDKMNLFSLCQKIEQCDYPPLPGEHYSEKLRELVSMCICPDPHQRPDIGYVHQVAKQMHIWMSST
Experiment [7] addresses PAK4 (Homo sapiens, UniProt O96013).
The target in experiment [8] is PIM1 (Homo sapiens, UniProt P11309).
Sequence of PIM1 (P11309 whole entry): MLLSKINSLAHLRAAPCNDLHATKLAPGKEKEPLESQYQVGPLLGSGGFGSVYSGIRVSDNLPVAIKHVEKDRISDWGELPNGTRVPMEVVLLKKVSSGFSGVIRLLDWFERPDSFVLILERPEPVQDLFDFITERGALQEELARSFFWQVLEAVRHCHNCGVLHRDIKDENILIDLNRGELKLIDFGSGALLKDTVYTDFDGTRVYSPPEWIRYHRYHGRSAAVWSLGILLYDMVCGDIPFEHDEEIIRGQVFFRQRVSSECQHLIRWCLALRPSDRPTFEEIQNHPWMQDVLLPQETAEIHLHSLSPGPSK
Experiment [9] addresses PKCa (Homo sapiens, UniProt P17252).

Like-named read-outs stand apart in the source and are kept apart here.

The results in this text go back to PMC8617627, “Novel DYRK1A Inhibitor Rescues Learning and Memory Deficits in a Mouse Model of Down Syndrome” (Pharmaceuticals, 2021).

As usually defined, the remaining activity is the signal under treatment as a percentage of the control signal.

Sequence of PAK4 (O96013 whole entry): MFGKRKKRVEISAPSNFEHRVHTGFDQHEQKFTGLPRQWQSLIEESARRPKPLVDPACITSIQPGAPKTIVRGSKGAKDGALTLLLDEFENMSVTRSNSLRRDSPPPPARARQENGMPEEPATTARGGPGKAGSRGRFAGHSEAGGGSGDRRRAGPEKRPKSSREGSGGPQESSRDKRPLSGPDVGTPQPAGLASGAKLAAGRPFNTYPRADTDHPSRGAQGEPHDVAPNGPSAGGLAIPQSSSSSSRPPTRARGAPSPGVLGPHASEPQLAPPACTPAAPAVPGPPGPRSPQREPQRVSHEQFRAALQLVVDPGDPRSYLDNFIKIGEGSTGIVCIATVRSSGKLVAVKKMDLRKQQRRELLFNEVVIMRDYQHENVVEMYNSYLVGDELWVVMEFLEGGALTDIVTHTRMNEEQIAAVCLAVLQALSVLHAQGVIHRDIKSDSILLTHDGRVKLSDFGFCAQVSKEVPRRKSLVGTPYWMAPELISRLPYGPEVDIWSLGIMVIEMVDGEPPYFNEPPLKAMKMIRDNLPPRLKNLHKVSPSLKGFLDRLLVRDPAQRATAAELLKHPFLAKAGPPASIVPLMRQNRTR

Turning to `COc1ccc2sc(-c3cncc(NC(C)=O)c3)nc2c1` [PST-001, N-(5-(5-Methoxybenzo[d]thiazol-2-yl)pyridin-3-yl)acetamide], the remaining activity at 1 µM in [1] came to 128%; in experiment [2], 89%; in experiment [3], 99%; in experiment [4], 140%; in [5] it was 119%; in experiment [6], 112%. For the same compound, the remaining activity at 1 µM in experiment [7] turned out to be 116%; in experiment [8], 98%; in [9] it was 119%. The remaining activity at 100 µM in [1] was 125%; in experiment [2], 28%; in experiment [3], 44%; in [4], 115%; in experiment [6], 113%; in experiment [7] it was 98%. In addition, the remaining activity at 100 µM came to 32% in experiment [8] and 85% in experiment [9].
On to `COc1ccc2sc(-c3cncc(N)c3)nc2c1` [compound 1, 5-(5-Methoxybenzo[d]thiazol-2-yl)pyridin-3-amine], for which the remaining activity at 1 µM in experiment [1] (BRSK2, 1 μM) was 125%; in experiment [2] (ERK8, 1 μM), 86%; in [3] (MELK, 1 μM) it was 96%; in experiment [4] (MKK6, 1 μM), 120%; in [5] (NEK2a, 1 μM) it was 111%; in [6] (NEK6, 1 μM), 106%. Besides, the remaining activity at 1 µM in [7] (PAK4, 1 μM) is 109%; in experiment [8] (PIM1, 1 μM) it was 87%; in experiment [9] (PKCa, 1 μM), 110%. Also, the remaining activity at 100 µM in experiment [1] (BRSK2, 100 μM) worked out at 53%; in experiment [2] (ERK8, 100 μM), 4%; in [3] (MELK, 100 μM) it was 12%; in experiment [4] (MKK6, 100 μM) it was 118%; in experiment [5] (NEK2a, 100 μM), 51%; in experiment [6] (NEK6, 100 μM) it was 115%. For the same compound, the remaining activity at 100 µM in experiment [7] (PAK4, 100 μM) stood at 54%; in experiment [8] (PIM1, 100 μM), 24%; in [9] (PKCa, 100 μM) it was 63%.
